This note sets out measurements from US20180186807A1, “COMPOUNDS AND USES THEREOF FOR THE MODULATION OF HEMOGLOBIN” (Global Blood Therapeutics, Inc., priority 2013, published 2018).

SMILES strings stand for the structures.

For `O=Cc1c(O)cccc1OCC(=O)N(C1CCOCC1)C1CCOCC1` [GBT001203, 2-(2-formyl-3-hydroxyphenoxy)-N,N-bis(tetrahydro-2H-pyran-4-yl)acetamide], the melting point lay within 272 to 275 °C.

As usually defined, the melting point is the temperature, or range, at which the solid turns liquid.
